Values of other authors, collected in patent publication US20110313191A1, “Preparation of Pharmaceutical Salts of 3-0-(3',3'-Dimethylsuccinyl) Betulinic Acid” (Myrexis, Inc., priority 2005, published 2011).

Test system: HIV
Settings: comparison with regioisomer 3-O-2′,2′-DSB; literature statement

EC50 of 3-O-3′,3′-DSB relative to that of 3-O-2′,2′-DSB: about four orders of magnitude lower
SMILES: C=C(C)[C@@H]1CC[C@]2(C(=O)O)CC[C@]3(C)[C@H](CC[C@@H]4[C@@]5(C)CC[C@H](OC(=O)CC(C)(C)C(=O)O)C(C)(C)[C@@H]5CC[C@]43C)[C@@H]12 [3-O-3′,3′-DSB, 3-O-(3′,3′-dimethylsuccinyl)betulinic acid]
